Reference: patent publication EP1203770A1 (priority 1992, dated 1994)
Read-outs that look alike come from different tables or passages of the source.

Target: T1, HIV-1 protease (Human immunodeficiency virus type 1 group M subtype B, UniProt P04585)
T1 construct: The protease (or proteinase), consisting of only 99 amino acids, is among the smallest enzymes known
Assay: In vitro HIV protease inhibitory assay (HIV Protease FITC Assay)
Format: biochemical
Details: for inhibition at 0.123 µM / inhibition at 0.37 µM / inhibition at 1.1 µM / inhibition at 3.3 µM / inhibition at 10 µM / inhibition at 30 µM / inhibition at 100 µM: read-out: HIV-1 Protease % Inhib; for inhibition at 100 µM: HIV-1 Dose 100.000 uM
In short: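 Percent inhibition was read as fluorescence after avidin-bead capture and filtration separated FITC cleavage product from biotinylated substrate. Enzyme and substrate reacted 1 h, RT, dark, at pH 5.5 (0.1 M sodium acetate, 1.0 M NaCl, 0.05% NP-40).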

Row | Structure (SMILES) | inhibition at 0.123 µM (HIV-1 Dose 0.123 uM) | inhibition at 0.37 µM (HIV-1 Dose 0.370 uM) | inhibition at 1.1 µM (HIV-1 Dose 1.100 uM) | inhibition at 3.3 µM (HIV-1 Dose 3.300 uM) | inhibition at 10 µM (HIV-1 Dose 10.000 uM) | inhibition at 30 µM (HIV-1 Dose 30.000 uM) | inhibition at 100 µM | Ki (read-out: HIV-1 FITC Ki) | inhibition at 0.123 µM | inhibition at 0.37 µM | inhibition at 1.1 µM | inhibition at 3.3 µM | inhibition at 10 µM | inhibition at 30 µM | Ki
1 | CCC(Cc1ccc(Br)cc1)c1cc(O)c(C(c2ccccc2)C2CC2)c(=O)o1 (stereo not drawn) [Example 158, 3-(α-cyclopropylbenzyl)-4-hydroxy-6-(α-ethyl-p-bromophenethyl)-2H-pyran-2-one] | 15.7% | 44.2% | 70.5% | 87% | 100% | 96.1% | 115% | 0.055 µM | – | – | – | – | – | – | –
2 | CCC(Cc1cccc(Br)c1)c1cc(O)c(C(c2ccccc2)C2CC2)c(=O)o1 (stereo not drawn) [Example 159, 3-(α-cyclopropylbenzyl)-4-hydroxy-6-(α-ethyl-m-bromophenethyl)-2H-pyran-2-one] | < 10% | 20.6% | 56.4% | 76.2% | 92.3% | 95.1% | – | 0.207 µM | – | – | – | – | – | – | –
3 | CCC(Cc1ccc(C(F)(F)F)cc1)c1cc(O)c(C(c2ccccc2)C2CC2)c(=O)o1 (stereo not drawn) [Example 160, 3-(α-cyclopropylbenzyl)-4-hydroxy-6-(α-ethyl-p-triflurormethylphenethyl)-2H-pyran-2-one] | < 10% | 12.2% | 39.4% | 78.2% | 89.7% | 92.1% | – | – | – | – | – | – | – | – | –
4 | CCC(Cc1cccc(C(F)(F)F)c1)c1cc(O)c(C(c2ccccc2)C2CC2)c(=O)o1 (stereo not drawn) [Example 161, 3-(α-cyclopropylbenzyl)-4-hydroxy-6-(α-ethyl-m-triflurormethylphenethyl)-2H-pyran-2-one] | < 10% | < 10% | 41.8% | 78% | 96.5% | 105% | – | – | – | – | – | – | – | – | –
5 | CCC(Cc1ccccc1C(F)(F)F)c1cc(O)c(C(c2ccccc2)C2CC2)c(=O)o1 (stereo not drawn) [Example 162, 3-(α-cyclopropylbenzyl)-4-hydroxy-6-(α-ethyl-o-triflurormethylphenethyl)-2H-pyran-2-one] | < 10% | < 10% | < 10% | 34.4% | 52% | 72.3% | – | – | – | – | – | – | – | – | –
6 | CCC(Cc1ccc(OC)cc1)c1cc(O)c(C(c2ccccc2)C2CC2)c(=O)o1 (stereo not drawn) [Example 163, 3-(α-cyclopropylbenzyl)-4-hydroxy-6-(α-ethyl-p-methoxyphenethyl)-2H-pyran-2-one] | < 10% | 30.8% | 65.6% | 88.7% | 101% | 98.4% | – | 0.172 µM | – | – | – | – | – | – | –
7 | CCC(Cc1cccc(OC)c1)c1cc(O)c(C(c2ccccc2)C2CC2)c(=O)o1 (stereo not drawn) [Example 164, 3-(α-cyclopropylbenzyl)-4-hydroxy-6-(α-ethyl-m-methoxyphenethyl)-2H-pyran-2-one] | < 10% | 16.5% | 50% | 68.8% | 84.8% | 88.2% | – | 0.185 µM | – | – | – | – | – | – | –
8 | O=c1oc(CCc2ccc(F)cc2)cc(O)c1C(c1ccccc1)C1CC1 (stereo not drawn) [Example 165, 3-(α-cyclopropylbenzyl)-4-hydroxy-6-(p-fluorophenethyl)-2H-pyran-2-one] | < 10% | 10.5% | 32.9% | 60% | 80.7% | 94.1% | – | – | – | – | – | – | – | – | –
9 | O=c1oc(CCc2ccc(Cl)cc2)cc(O)c1C(c1ccccc1)C1CC1 (stereo not drawn) [Example 166, 3-(α-cyclopropylbenzyl)-4-hydroxy-6-(p-chlorophenethyl)-2H-pyran-2-one] | < 10% | < 10% | < 10% | 39.8% | 62.3% | 80.9% | 97.8% | – | – | – | – | – | – | – | –
10 | O=c1oc(CCc2ccc(Br)cc2)cc(O)c1C(c1ccccc1)C1CC1 (stereo not drawn) [Example 167, 3-(α-cyclopropylbenzyl)-4-hydroxy-6-(p-bromophenethyl)-2H-pyran-2-one] | < 10% | < 10% | 18.4% | 37.1% | 60.4% | 81.1% | – | – | – | – | – | – | – | – | –
11 | C=CC(C1=C(O)CC(Cc2ccccc2)(c2ccccc2)OC1=O)c1ccccc1 (stereo not drawn) [Example 168, 5,6-Dihydro-4-hydroxy-6-phenyl-6-(phenylmethyl)-3-(1-phenyl-2-propenyl)-2H-pyran-2-one] | < 10% | < 10% | < 10% | 10.4% | 43.4% | 48% | – | – | – | – | – | – | – | – | –
12 | CCC(C1=C(O)CC(Cc2ccccc2)(c2ccccc2)OC1=O)c1ccccc1 (stereo not drawn) [Example 169, 5,6-Dihydro-4-hydroxy-6-phenyl-6-(phenylmethyl)-3-(1-phenylpropyl)-2H-pyran-2-one] | – | – | – | – | – | – | – | – | < 10% | < 10% | < 10% | < 10% | 33.2% | 54.8% | –
13 | CCCC1(CCc2ccccc2)CC(O)=C(C(/C=C/c2ccccc2)c2ccccc2)C(=O)O1 (stereo not drawn) [Example 170, 3-(1,3-Diphenyl-2-propenyl)-5,6-dihydro-4-hydroxy-6-(2-phenylethyl)-6-propyl-, (E)-2H-pyran-2-one] | – | – | – | – | – | – | – | 0.05 µM | < 10% | 29.6% | 62.1% | 86.7% | 95.1% | 93% | –
14 | CCCC1(CCc2ccccc2)CC(O)=C(C(CCc2ccccc2)c2ccccc2)C(=O)O1 (stereo not drawn) [Example 171, 3-(1,3-Diphenylpropyl)-5,6-dihydro-4-hydroxy-6-(2-phenylethyl)-6-propyl-, 2H-pyran-2-one] | – | – | – | – | – | – | – | 0.05 µM | 11.8% | 39.5% | 68.9% | 82.2% | 96.8% | 94.6% | –
15 | O=C1OC(Cc2ccccc2)(c2ccccc2)CC(O)=C1C(/C=C/c1ccccc1)c1ccccc1 (stereo not drawn) [Example 172, 3-(1,3-Diphenyl-2-propenyl)-5,6-dihydro-4-hydroxy-6-phenyl-6-(phenylmethyl)-2H-pyran-2-one] | < 10% | < 10% | 11.7% | 29.5% | 56.8% | 60.6% | – | – | – | – | – | – | – | – | –
16 | CCCC1(CCc2ccccc2)CC(O)=C(/C(=C/c2ccccc2)c2ccccc2)C(=O)O1 (stereo not drawn) [Example 173, 3-(1,2-Diphenylethenyl)-5,6-dihydro-4-hydroxy-6-(2-phenylethyl)-6-propyl-, (E)-2H-pyran-2-one] | < 10% | < 10% | – | < 10% | 39.2% | 58.8% | – | – | – | – | – | – | – | – | –
17 | C=CC(C1=C(O)CC(CCC)(CCc2ccccc2)OC1=O)c1ccccc1 (stereo not drawn) [Example 174, 5,6-Dihydro-4-hydroxy-6-(2-phenylethyl)-3-(1-phenyl-2-propenyl)-6-propyl-2H-pyran-2-one] | 23.5% | 52.8% | 81.8% | 102% | 110% | 106% | – | 0.016 µM | – | – | – | – | – | – | –
18 | CCCC1(CCc2ccccc2)CC(O)=C(C(CC)c2ccccc2)C(=O)O1 (stereo not drawn) [Example 175, 5,6-Dihydro-4-hydroxy-6-(2-phenylethyl)-3-(1-phenylpropyl)-6-propyl-2H-pyran-2-one] | – | – | – | – | – | – | – | – | 19.7% | 46.7% | 78.8% | 99.3% | 107% | 105% | 0.035 µM
